A word on the GI50: it is the concentration at which growth is held to half of that of the control. For orientation: TGI means the concentration giving total growth inhibition. A higher TGI goes with lower sensitivity of the cells.

Some test systems named below: HS 578T breast; BT-549 breast; T-47D breast; KM20L2 colon; DLD-1 colon; LXFL 529 NSCLC; DMS 273 small cell lung; SNB-78 CNS; DMS 114 small cell lung.
What all share (assay): DTP human tumour cell line panel, 48 h

The structures appear in SMILES notation.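 Grown in 96-well plates, cells were treated for 48 hours with each compound at five concentrations. Insufficient inhibition: endpoint recorded as highest concentration tested. GI50 marks 50% less growth. Definition used: TGI = concentration required for complete inhibition of growth.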 Bounds are passed on as bounds.

For the compound `CCN(CC)CCC(=O)Nc1ccc(Cn2nnc3c2C(=O)c2nnn(Cc4ccc(NC(=O)CCN(CC)CC)cc4)c2C3=O)cc1`, the GI50 with HS 578T breast is 2.34 µM; in the assay with BT-549 breast, 1.64 µM. Further, the TGI in the assay on HS 578T breast came to 8.84 µM; with BT-549 breast it was 3.06 µM.

Regarding `COc1ccc2c(c1O)[C@@]13C=C(O)C(=O)C=C1[C@@H](C2)N(C)CC3`, the TGI in the assay on T-47D breast, in the assay with HS 578T breast and in the assay on BT-549 breast was greater than 100 µM throughout.

In the case of `O=C(/C=C/N1CCN(c2cccc(C(F)(F)F)c2)CC1)c1ccc(Cl)cc1Cl`, the figures for the GI50 with T-47D breast, in the assay with HS 578T breast and in the assay on BT-549 breast were 82.8 µM, 27.5 µM and 20.5 µM, respectively. Further, the TGI was greater than 100 µM in the assay on T-47D breast, 63.8 µM with HS 578T breast and 40.3 µM in the assay with BT-549 breast.

Consider `CC(=O)[CH-]C(=O)c1ccccc1.CC(=O)[CH-]C(=O)c1ccccc1.[O]=[U+2]=[O]`, for which the figures for the GI50 in the assay on KM20L2 colon, with DLD-1 colon and with LXFL 529 NSCLC were 37.1 µM, 29.7 µM and 32.7 µM, respectively. The TGI with KM20L2 colon, in the assay on DLD-1 colon and in the assay with LXFL 529 NSCLC was greater than 100 µM each time.

As for `CC[C@]12C=CCN3CC[C@]4(C(=C(C(=O)OC)C1)Nc1cc(O)ccc14)[C@@H]32`, the figures for the GI50 in the assay on T-47D breast, in the assay on HS 578T breast and in the assay with BT-549 breast were 22.4 µM, 15.5 µM and 20.6 µM, respectively. In addition, the TGI was 87.7 µM with T-47D breast, 58.1 µM with HS 578T breast and 41.9 µM in the assay with BT-549 breast.

For the compound `CO[C@H]1C=C[C@]23c4cc5c(cc4CN(CC2O)[C@@H]3C1)OCO5` (some centres not stated), the TGI with T-47D breast turned out to be 18.2 µM; in the assay with HS 578T breast, 81.9 µM; with BT-549 breast it was 13.7 µM.

`COc1ccc2nc3ccc(OC)cc3c(SCCCN)c2c1`: the GI50 was 3.08 µM in the assay with T-47D breast, 5.9 µM in the assay with HS 578T breast and 10.5 µM with BT-549 breast. The TGI with T-47D breast is 14.2 µM; with HS 578T breast, 15.5 µM; with BT-549 breast, 23.4 µM.

Consider `S=C(Nc1ccccc1)Nc1[nH]c(=S)sc1-c1nc2ccccc2[nH]1`, for which the TGI with DMS 273 small cell lung, with DLD-1 colon, in the assay with LXFL 529 NSCLC and in the assay with SNB-78 CNS was greater than 100 µM throughout.

Regarding `O=C(Cc1nc2ccc(C(=O)c3ccccc3)cc2[nH]c1=O)C(=O)Nc1ccccc1[N+](=O)[O-]`, the TGI in the assay on T-47D breast, in the assay on HS 578T breast and in the assay on BT-549 breast was greater than 100 µM throughout.

For `C/C(=C(/c1ccc(O)cc1)c1ccc(OCCN2CCCC2)cc1)c1ccccc1`, the figures for the GI50 in the assay on T-47D breast, in the assay with HS 578T breast and with BT-549 breast were 0.716 µM, 2.96 µM and 4.2 µM, respectively. Besides, the TGI stood at 7.93 µM in the assay on T-47D breast, 9.9 µM in the assay on HS 578T breast and 15.7 µM in the assay on BT-549 breast.

Consider `CN1CCCC1c1cccnc1.O=C(O)c1ccccc1O.O=C([O-])c1ccccc1[OH2+].O=C([O-])c1ccccc1[OH2+].O=C([O-])c1ccccc1[OH2+].[Mn+2]` (configuration not stated), for which the results for the GI50 with T-47D breast, with HS 578T breast and in the assay on BT-549 breast were greater than 100 µM, 2.43 µM and 39.7 µM, respectively. The TGI with T-47D breast, in the assay on HS 578T breast and in the assay with BT-549 breast was greater than 100 µM in each case.

Turning to `Cc1nnc([S-])s1.[Au+].c1ccc([PH+](c2ccccc2)c2ccccc2)cc1`, in the assay on T-47D breast, the GI50 is 2.2 µM and the TGI turned out to be 6.12 µM. In addition, in the assay with BT-549 breast, the GI50 is 1.47 µM and the concentration for total growth inhibition (TGI) was 2.88 µM.

In the case of `CCCC/C(=N\N=C(N)N)c1ccc(F)cc1`, the figures for the GI50 in the assay with T-47D breast, in the assay on HS 578T breast and in the assay with BT-549 breast were 2.61 µM, 2.88 µM and 3.48 µM, respectively. Moreover, the TGI with T-47D breast was 15.6 µM; in the assay on HS 578T breast it was 8.81 µM; with BT-549 breast, 12.5 µM.

On to `O=C(OCc1ccccc1CN1CCOCC1)c1ccc(Br)cc1`, for which the TGI in the assay with T-47D breast, with HS 578T breast and in the assay with BT-549 breast was greater than 100 µM throughout.

For `CCCCCCCCCCCCCCCC[N+]1(CC)CCCC1`, the figures for the GI50 with T-47D breast and with HS 578T breast were 0.528 µM and 0.679 µM, respectively. The TGI in the assay on T-47D breast is 3.93 µM; in the assay with HS 578T breast, 3.26 µM.

Take `CCN(CC)CCOc1ccc(/C=C2\C[C@H]3[C@@H]4CC=C5C[C@@H](OC(C)=O)CC[C@]5(C)[C@H]4CC[C@]3(C)[C@H]2OC(C)=O)cc1OC`: in the assay with T-47D breast, the GI50 was 16.3 µM and the TGI was 48.1 µM. Moreover, in the assay with HS 578T breast, the GI50 was 10.6 µM and the TGI came out at 22.4 µM.

For the compound `CC[C@@]1(OC(=O)CN)C(=O)OCc2c1cc1n(c2=O)Cc2cc3cc(N)ccc3nc2-1`, the GI50 is less than 0.0359 µM in the assay with T-47D breast, 1.97 µM in the assay with HS 578T breast and 1.3 µM in the assay with BT-549 breast. Also, the TGI with T-47D breast, in the assay on HS 578T breast and in the assay with BT-549 breast was greater than 100 µM in each case.

Take `O=C1[C@H]2C(c3ccccc3)=NN(C(=O)c3ccccc3)[C@H]2C(=O)N1c1ccccc1`: the TGI with DMS 273 small cell lung, in the assay with DLD-1 colon and in the assay with DMS 114 small cell lung was greater than 100 µM each time.

In the case of `O=C1C=C(Nc2cccc(Br)c2)c2ccccc2C1=O`, in the assay with HS 578T breast, the GI50 is 0.259 µM and the TGI is 14.4 µM. In addition, in the assay with BT-549 breast, the GI50 is 4.58 µM and the TGI was found to be 33.9 µM.

With `COc1ccc(C2=CC(c3cc(OC)c(OC)c(OC)c3)n3ncnc3N2)cc1` (configuration not stated), in the assay on HS 578T breast, the GI50 is 0.0734 µM and the TGI was greater than 100 µM. For the same compound, in the assay on BT-549 breast, the GI50 was 0.0684 µM and the TGI came out at 2.04 µM.

Consider `CC1(C)N=C(N)N=C(N)N1c1ccc(OCC(=O)Nc2cccc(S(=O)(=O)F)c2)c(Cl)c1`, for which the TGI with T-47D breast, in the assay with HS 578T breast and in the assay on BT-549 breast was greater than 100 µM each time. For the same compound, the GI50 in the assay with BT-549 breast is greater than 100 µM.

`N#CC1c2ccccc2-c2ccccc2N1C(=O)c1ccccc1` (configuration not stated): the GI50 in the assay with T-47D breast was 25.7 µM; in the assay on HS 578T breast it was 1.99 µM; in the assay with BT-549 breast, 0.507 µM. Besides, the values for the TGI in the assay with T-47D breast, in the assay with HS 578T breast and in the assay with BT-549 breast were greater than 100 µM, 6.72 µM and 2.54 µM, respectively.

As for `O=C(N[C@@H]1CCCc2ccccc21)[C@H](CCC(=O)N1CCN(C2CCCCC2)CC1)N1C(=O)[C@@H](N2C(=O)OC[C@@H]2c2ccccc2)[C@H]1/C=C/c1ccccc1`, the figures for the GI50 in the assay with T-47D breast, in the assay on HS 578T breast and in the assay on BT-549 breast were 2.98 µM, 3.52 µM and 1.76 µM, respectively. Besides, the TGI was 14.6 µM with T-47D breast, 21.1 µM in the assay with HS 578T breast and 3.92 µM with BT-549 breast.

The values are drawn from PubChem BioAssay (NCI).
